The record followed here is US9568483B2, “Molecular subtyping, prognosis and treatment of prostate cancer” (CORNELL UNIVERSITY, priority 2011, dated 2017).

“Also recorded” adds a separate entry of the source.

For one data set, the system named is LNCaP-MYCN cells. The experiment in a line: Cell cycle FACS analysis, LNCaP-MYCN. In kind it is cell-based. The settings on record: 48 hrs treatment. Here is the method:
(§1) Cell Cycle Analysis. Cells were treated with PHA-739358 for 48 hrs. After treatment, cells were washed with cold PBS and fixed in 70% EtOH at −20° C. overnight. Cells were washed and suspended in 500 μl PBS containing 0.1% Triton X-100, 20 μg/ml Propidium Iodide (PI) and 200 μg/ml RNase A, incubated for 30 min at room temperature and subjected to FACS analysis using a LSR II Analyzer (BD Biosciences).

In another data set the test system is LNCaP xenografts. The experiment in a line: LNCaP xenograft study. It is filed as in vivo, NU/J mice. Here is the method:
(§2) Drug Treatment. PHA-739358 was obtained from Nerviano Medical Sciences (Milan, Italy) in powder form (MW 414.36). Prostate cell lines for this study were obtained from the American Type Culture Collection (Manassas, Va.). RWPE (20×10^3 per well), NCI-H660 (20×10^3), DU145 (5×10^3 per well), VCaP (20×10^3 per well) and LNCaP (1.5×10^4 per well) cells were seeded on 96-well-tissue culture plates. At 24 hours, cell lines were treated with vehicle (0.5% DMSO) or escalating doses of PHA-739358 (5 nM, 50 nM, 100 nM, 500 nM, 1 uM, 5 uM). At 48 hr, 72 h, 96 h, and 120 h, viability was assessed by performing WST-1 assay (Roche, Indianapolis, Ind.) reading absorbance at 450 nm according to the manufacturer's instructions. Xenografts were prepared by injection of 1 million NCI-H660 cells, VCaP cells, or LNCaP cells into NU/J mice (Jackson Laboratories, Bar Harbor, Me.). […] Mice were sacrificed on day 17, and tumors were evaluated for weight, gross pathology, histology, and IHC. […]
(§3) Immunohistochemistry (IHC). […] IHC was quantified on scale 0-3 and overexpression was defined as any staining intensity seen of target cells above background (similar methodology as was used in PARK et al., Neoplasia, 12:590-8 (2010)).
(§4) Xenografts. […] Mice were sacrificed on day 17, and tumors were evaluated for weight, gross pathology, histology, and IHC. […]

For another data set, the system named is LTL-352 xenograft. Nature of the data set: LTL-352 xenograft study. In kind it is in vivo, NOD/SCID mice. The settings on record: LTL-352 xenografts; 30 mg/kg IP BID, 5 days; P<0.001. The procedure: as §2, with “Me.). LTL-362 xenografts were established at BC Cancer Center Living Tumor Laboratory as previously described (TUNG et al., Prostate (2010)).” for “Me.).”
(§5) Xenografts. […] Mice were sacrificed on day 17, and tumors were evaluated for weight, gross pathology, histology, and IHC. […] Analysis was performed using LivingImage software (Xenogen) by measurement of the average photon flux (measured in photons/s/cm2/steradian) within a region of interest.

The subject of data set [1] is NCI-H660 cells. The experiment in a line: WST-1 viability assay, NCI-H660. The settings on record: compared to two PCA cell lines (DU145, VCaP) and benign RWPE-1 cells; 72 hours; FIG. 4B. In kind it is cell-based, human. The procedure: as §2, with “Me.). LTL-362 xenografts were established at BC Cancer Center Living Tumor Laboratory as previously described (TUNG et al., Prostate (2010)). 3×3×2 […] tissue fragments were subcutaneously engrafted into fourteen 6-8 week old NOD/SCID mice. All xenograft tumors were allowed to grow to an average tumor […] of 100 mm^3.” for “Me.).”
Background: Formazan colour is commonly taken as a measure of viable cells.

The subject of a further data set is NCI-H660 xenografts. Nature of the data set: NCI-H660 xenograft study. It is filed as in vivo, NU/J mice. The procedure: (§6) Drug Treatment. PHA-739358 was obtained from Nerviano Medical Sciences (Milan, Italy) in powder form (MW 414.36). Prostate cell lines for this study were obtained from the American Type Culture Collection (Manassas, Va.). RWPE (20×10^3 per well), NCI-H660 (20×10^3), DU145 (5×10^3 per well), VCaP (20×10^3 per well) and LNCaP (1.5×10^4 per well) cells were seeded on 96-well-tissue culture plates. At 24 hours, cell lines were treated with vehicle (0.5% DMSO) or escalating doses of PHA-739358 (5 nM, 50 nM, 100 nM, 500 nM, 1 uM, 5 uM). At 48 hr, 72 h, 96 h, and 120 h, viability was assessed by performing WST-1 assay (Roche, Indianapolis, Ind.) reading absorbance at 450 nm according to the manufacturer's instructions. Xenografts were prepared by injection of 1 million NCI-H660 cells, VCaP cells, or LNCaP cells into NU/J mice (Jackson Laboratories, Bar Harbor, Me.). LTL-362 xenografts were established at BC Cancer Center Living Tumor Laboratory as previously described (TUNG et al., Prostate (2010)). 3×3×2 […] tissue fragments were subcutaneously engrafted into fourteen 6-8 week old NOD/SCID mice. All xenograft tumors were allowed to grow to an average tumor […] of 100 mm^3. 20 LNCaP, 20 VCaP, 40 NCI-H660, 14 LTL-362 mice were randomized to treatment with PHA-739358 at 30 mg/kg intraperitoneal dosing on days 1-5 or vehicle. Body weight, tumor volume based on caliper measurements (0.5236×length×width) and luciferase imaging were performed every 3 or 4 days after treatment. Mice were sacrificed on day 17, and tumors were evaluated for weight, gross pathology, histology, and IHC. Three tumors were processed during treatment (on day 4) to evaluate for phosphorylated histone 3 expression by IHC.
as §3, §4

For data set [2] the following is noted: mouse, in vivo, ip, 30 mg/kg. Here is the method: as §2, with “Me.). LTL-362 xenografts were established at BC Cancer Center Living Tumor Laboratory as previously described (TUNG et al., Prostate (2010)).” for “Me.).”
as §5

A further data set deals with VCaP xenografts. Nature of the data set: VCaP xenograft study. The settings on record: 30 mg/kg intraperitoneal, days 1-5. In kind it is in vivo, NU/J mice. The procedure: as §2, with “Me.). LTL-362 xenografts were established at BC Cancer Center Living Tumor Laboratory as previously described (TUNG et al., Prostate (2010)).” for “Me.).”
as §5

Another data set deals with LNCaP cells. The experiment in a line: Cell cycle FACS analysis, LNCaP. In kind it is cell-based. The note with it: 48 hrs treatment. Here is the method: as §1
On the technique in general: Flow cytometry measures light scatter and fluorescence of single cells or particles in a stream.

For data set [3], the system named is NCI-H660 cells. The experiment in a line: Cell cycle FACS analysis, NCI-H660. In kind it is cell-based, human. The note with it: 48 hrs treatment. Here is the method:
as §1

For another data set, the system named is LNCaP-n-Myc cells. Nature of the data set: WST-1 viability assay, LNCaP cells stably transfected with MYCN. The settings on record: compared to control LNCaP cells (LNCaP-EV); 72 hours; FIG. 4A. In kind it is cell-based. The procedure:
as §6, with “20 LNCaP, 20 VCaP, 40 NCI-H660, 14 LTL-362 mice were randomized to treatment with PHA-739358 at 30 mg/kg intraperitoneal dosing on days 1-5 or vehicle. Body weight, tumor volume based on caliper measurements (0.5236×length×width) and luciferase imaging were performed every 3 or 4 days after treatment.” left out, “Three tumors were processed during treatment (on day 4) to evaluate for phosphorylated histone 3 expression by IHC.” left out

On to `CO[C@@H](C(=O)N1Cc2n[nH]c(NC(=O)c3ccc(N4CCN(C)CC4)cc3)c2C1)c1ccccc1` [PHA-739358], for which the Polyploidy result with LNCaP-MYCN cells, with LNCaP cells and in the data set with NCI-H660 cells [3] was “induced” each time. For the same compound, the G2/M arrest result is “dose dependent G2/M arrest” in the data set with LNCaP-MYCN cells (FIG. 5), “dose dependent G2/M arrest” with LNCaP cells (FIG. 5) and “no significant G2/M arrest” in the data set with NCI-H660 cells [3] (FIG. 5). Besides, the “effect on tumor size” value in the data set on LNCaP xenografts (LNCaP xenografts, 30 mg/kg IP BID, 5 days) is on record as “no effect”; with VCaP xenografts it was “cytostatic effect”. For the same compound, the “Phosphorylated histone 3 expression (IHC)” value in the data set with LNCaP xenografts (treated LNCaP xenografts, day 4 of treatment) is on record as “not in the LNCaP xenografts”; in the data set on NCI-H660 xenografts (treated NCI-H660 xenografts, day 4 of treatment) it was “significantly inhibited”. For the same compound, the average tumor shrinkage is given as 50-87% in the data set on LTL-352 xenograft and 50-87% with NCI-H660 xenografts (NCI-H660 xenografts, 30 mg/kg IP BID, 5 days, P<0.001). Besides, the “sensitivity (viability)” value in the data set with NCI-H660 cells [1] was “enhanced sensitivity”. The “SYP (synaptophysin) expression (IHC)” value in the data set on NCI-H660 xenografts (treated NCI-H660 xenografts, FIG. 4F) was “negative; also recorded: completely suppressed”. Moreover, the “toxicity as determined by body weight” value in data set [2] is listed as “without significant toxicity”. Moreover, the “in vitro sensitivity (viability)” value with LNCaP-n-Myc cells was “enhanced in vitro sensitivity”.
